In ChEMBL document CHEMBL1649271, “In vitro sensitivity testing of Leishmania clinical field isolates: preconditioning of promastigotes enhances infectivity for macrophage host cells” (Antimicrob Agents Chemother, 2009):

Assays:
Leishmania donovani [1] = assay: Antileishmanial activity against Leishmania donovani BPK043 amastigotes infected in Swiss mouse primary peritoneal mouse macrophages assessed as reduction of total parasite burden after 5 days; format: functional, organism-based
Leishmania donovani [2] = assay: Antileishmanial activity against Leishmania donovani BPK091 amastigotes infected in Swiss mouse primary peritoneal mouse macrophages assessed as reduction of total parasite burden after 5 days; format: functional, organism-based
Leishmania donovani [3] = assay: Antileishmanial activity against Leishmania donovani BPK178 amastigotes infected in Swiss mouse primary peritoneal mouse macrophages assessed as reduction of total parasite burden after 5 days; format: functional, organism-based
Leishmania donovani [4] = assay: Antileishmanial activity against Leishmania donovani BPK206 amastigotes infected in Swiss mouse primary peritoneal mouse macrophages assessed as reduction of total parasite burden after 5 days; format: functional, organism-based
Leishmania donovani [5] = assay: Antileishmanial activity against Leishmania donovani BPK206cl amastigotes infected in Swiss mouse primary peritoneal mouse macrophages assessed as reduction of total parasite burden after 5 days; format: functional, organism-based
Leishmania donovani [6] = assay: Antileishmanial activity against Leishmania donovani BPK274 amastigotes infected in Swiss mouse primary peritoneal mouse macrophages assessed as reduction of total parasite burden after 5 days; format: functional, organism-based
Leishmania donovani [7] = assay: Antileishmanial activity against Leishmania donovani BPK294 amastigotes infected in Swiss mouse primary peritoneal mouse macrophages assessed as reduction of total parasite burden after 5 days; format: functional, organism-based
Leishmania donovani [8] = assay: Antileishmanial activity against Leishmania donovani BPK298 amastigotes infected in Swiss mouse primary peritoneal mouse macrophages assessed as reduction of total parasite burden after 5 days; format: functional, organism-based
Leishmania donovani [9] = assay: Antileishmanial activity against Leishmania donovani BPK177 amastigotes infected in Swiss mouse primary peritoneal mouse macrophages assessed as reduction of total parasite burden after 5 days; format: functional, organism-based
Leishmania donovani [10] = assay: Antileishmanial activity against Leishmania donovani BPK190 amastigotes infected in Swiss mouse primary peritoneal mouse macrophages assessed as reduction of total parasite burden after 5 days; format: functional, organism-based
Leishmania donovani [11] = assay: Antileishmanial activity against Leishmania donovani BPK190cl amastigotes infected in Swiss mouse primary peritoneal mouse macrophages assessed as reduction of total parasite burden after 5 days; format: functional, organism-based
Leishmania guyanensis [12] = assay: Antileishmanial activity against Leishmania guyanensis PER106 amastigotes infected in Swiss mouse primary peritoneal mouse macrophages assessed as reduction of total parasite burden after 5 days; format: functional, organism-based
Leishmania guyanensis [13] = assay: Antileishmanial activity against Leishmania guyanensis PER008 amastigotes infected in Swiss mouse primary peritoneal mouse macrophages assessed as reduction of total parasite burden after 5 days; format: functional, organism-based
Leishmania guyanensis [14] = assay: Antileishmanial activity against Leishmania guyanensis PER054 amastigotes infected in Swiss mouse primary peritoneal mouse macrophages assessed as reduction of total parasite burden after 5 days; format: functional, organism-based
Leishmania guyanensis [15] = assay: Antileishmanial activity against Leishmania guyanensis PER072 amastigotes infected in Swiss mouse primary peritoneal mouse macrophages assessed as reduction of total parasite burden after 5 days; format: functional, organism-based
Leishmania guyanensis [16] = assay: Antileishmanial activity against Leishmania guyanensis PER080 amastigotes infected in Swiss mouse primary peritoneal mouse macrophages assessed as reduction of total parasite burden after 5 days; format: functional, organism-based
Leishmania braziliensis [17] = assay: Antileishmanial activity against Leishmania braziliensis PER002cl amastigotes infected in Swiss mouse primary peritoneal mouse macrophages assessed as reduction of total parasite burden after 5 days; format: functional, organism-based
Leishmania braziliensis [18] = assay: Antileishmanial activity against Leishmania braziliensis PER005cl amastigotes infected in Swiss mouse primary peritoneal mouse macrophages assessed as reduction of total parasite burden after 5 days; format: functional, organism-based
Leishmania donovani [19] = assay: Activity index, ratio of IC50 for Leishmania donovani BPK091 to IC50 for Leishmania donovani BPK043; format: functional, organism-based
Leishmania donovani [20] = assay: Activity index, ratio of IC50 for Leishmania donovani BPK178 to IC50 for Leishmania donovani BPK043; format: functional, organism-based
Leishmania donovani [21] = assay: Activity index, ratio of IC50 for Leishmania donovani BPK206 to IC50 for Leishmania donovani BPK043; format: functional, organism-based
Leishmania donovani [22] = assay: Activity index, ratio of IC50 for Leishmania donovani BPK206cl to IC50 for Leishmania donovani BPK043; format: functional, organism-based
Leishmania donovani [23] = assay: Activity index, ratio of IC50 for Leishmania donovani BPK274 to IC50 for Leishmania donovani BPK043; format: functional, organism-based
Leishmania donovani [24] = assay: Activity index, ratio of IC50 for Leishmania donovani BPK294 to IC50 for Leishmania donovani BPK043; format: functional, organism-based
Leishmania donovani [25] = assay: Activity index, ratio of IC50 for Leishmania donovani BPK298 to IC50 for Leishmania donovani BPK043; format: functional, organism-based
Leishmania donovani [26] = assay: Activity index, ratio of IC50 for Leishmania donovani BPK177 to IC50 for Leishmania donovani BPK043; format: functional, organism-based
Leishmania donovani [27] = assay: Activity index, ratio of IC50 for Leishmania donovani BPK190 to IC50 for Leishmania donovani BPK043; format: functional, organism-based
Leishmania donovani [28] = assay: Activity index, ratio of IC50 for Leishmania donovani BPK190cl to IC50 for Leishmania donovani BPK043; format: functional, organism-based
Leishmania guyanensis [29] = assay: Activity index, ratio of IC50 for Leishmania guyanensis PER008 to IC50 for Leishmania guyanensis PER106; format: functional, organism-based
Leishmania guyanensis [30] = assay: Activity index, ratio of IC50 for Leishmania guyanensis PER054 to IC50 for Leishmania guyanensis PER106; format: functional, organism-based
Leishmania guyanensis [31] = assay: Activity index, ratio of IC50 for Leishmania guyanensis PER072 to IC50 for Leishmania guyanensis PER106; format: functional, organism-based
Leishmania guyanensis [32] = assay: Activity index, ratio of IC50 for Leishmania guyanensis PER080 to IC50 for Leishmania guyanensis PER106; format: functional, organism-based
[33] = Activity index, ratio of IC50 for Leishmania braziliensis PER002cl to IC50 for Leishmania guyanensis PER106; format: functional
[34] = Activity index, ratio of IC50 for Leishmania braziliensis PER005cl to IC50 for Leishmania guyanensis PER106; format: functional

Compound: CCCCCCCCCCCCCCCCOP(=O)([O-])OCC[N+](C)(C)C [MILTEFOSINE]
- IC50 (Leishmania donovani [1]; Leishmania donovani, BPK043, 120 h, read-out: IC50): 1.5 µM
- IC50 (Leishmania donovani [2]; Leishmania donovani, BPK091, 120 h, read-out: IC50): 3.2 µM
- IC50 (Leishmania donovani [3]; Leishmania donovani, BPK178, 120 h, read-out: IC50): 5.5 µM
- IC50 (Leishmania donovani [4]; Leishmania donovani, BPK206, 120 h, read-out: IC50): 4 µM
- IC50 (Leishmania donovani [5]; Leishmania donovani, BPK206cl, 120 h, read-out: IC50): 2 µM
- IC50 (Leishmania donovani [6]; Leishmania donovani, BPK274, 120 h, read-out: IC50): 7.1 µM
- IC50 (Leishmania donovani [7]; Leishmania donovani, BPK294, 120 h, read-out: IC50): 3 µM
- IC50 (Leishmania donovani [8]; Leishmania donovani, BPK298, 120 h, read-out: IC50): 3.4 µM
- IC50 (Leishmania donovani [9]; Leishmania donovani, BPK177, 120 h, read-out: IC50): 2 µM
- IC50 (Leishmania donovani [10]; Leishmania donovani, BPK190, 120 h, read-out: IC50): 4.5 µM
- IC50 (Leishmania donovani [11]; Leishmania donovani, BPK190cl, 120 h, read-out: IC50): 3 µM
- IC50 (Leishmania guyanensis [12]; Leishmania guyanensis, PER106, 120 h, read-out: IC50): 10 µM
- IC50 (Leishmania guyanensis [13]; Leishmania guyanensis, PER008, 120 h, read-out: IC50): 5 µM
- IC50 (Leishmania guyanensis [14]; Leishmania guyanensis, PER054, 120 h, read-out: IC50): 9.5 µM
- IC50 (Leishmania guyanensis [15]; Leishmania guyanensis, PER072, 120 h, read-out: IC50): 10 µM
- IC50 (Leishmania guyanensis [16]; Leishmania guyanensis, PER080, 120 h, read-out: IC50): 7.5 µM
- IC50 (Leishmania braziliensis [17]; Leishmania braziliensis, PER002cl, 120 h, read-out: IC50): 10.3 µM
- IC50 (Leishmania braziliensis [18]; Leishmania braziliensis, PER005cl, 120 h, read-out: IC50): 10 µM

Compound: POTASSIUM ANTIMONYL TARTRATE TRIHYDRATE [listing 1 of 2 here]
- IC50 (Leishmania donovani [1]): 6 µg/mL
- IC50 (Leishmania donovani [2]): 24.2 µg/mL
- IC50 (Leishmania donovani [3]): 21.8 µg/mL
- IC50 (Leishmania donovani [4]): 11 µg/mL
- IC50 (Leishmania donovani [5]): 5 µg/mL
- IC50 (Leishmania donovani [6]): 16.2 µg/mL
- IC50 (Leishmania donovani [7]): 6 µg/mL
- IC50 (Leishmania donovani [8]): 12 µg/mL
- IC50 (Leishmania donovani [9]): 32 µg/mL
- IC50 (Leishmania donovani [10]): 27.3 µg/mL
- IC50 (Leishmania donovani [11]): 24 µg/mL
- IC50 (Leishmania guyanensis [12]): 12 µg/mL
- IC50 (Leishmania guyanensis [13]): 18 µg/mL
- IC50 (Leishmania guyanensis [14]): 18 µg/mL
- IC50 (Leishmania guyanensis [15]): 19 µg/mL
- IC50 (Leishmania guyanensis [16]): 14.5 µg/mL
- IC50 (Leishmania braziliensis [17]): 13.5 µg/mL
- IC50 (Leishmania braziliensis [18]): 25 µg/mL

Compound: POTASSIUM ANTIMONYL TARTRATE TRIHYDRATE [listing 2 of 2 here]
- Ratio IC50 (Leishmania donovani [19]): 3.9
- Ratio IC50 (Leishmania donovani [20]): 3.6
- Ratio IC50 (Leishmania donovani [21]): 1.8
- Ratio IC50 (Leishmania donovani [22]): 0.8
- Ratio IC50 (Leishmania donovani [23]): 2.7
- Ratio IC50 (Leishmania donovani [24]): 1
- Ratio IC50 (Leishmania donovani [25]): 2
- Ratio IC50 (Leishmania donovani [26]): 5.3
- Ratio IC50 (Leishmania donovani [27]): 4.5
- Ratio IC50 (Leishmania donovani [28]): 4
- Ratio IC50 (Leishmania guyanensis [29]): 1.6
- Ratio IC50 (Leishmania guyanensis [30]): 1.6
- Ratio IC50 (Leishmania guyanensis [31]): 1.6
- Ratio IC50 (Leishmania guyanensis [32]): 1.4
- Ratio IC50 [33]: 1.3
- Ratio IC50 [34]: 2.4

Compound: sodium stibogluconate
- Ratio IC50 (Leishmania donovani [19]): 3.2
- Ratio IC50 (Leishmania donovani [20]): 3.1
- Ratio IC50 (Leishmania donovani [21]): 3.6
- Ratio IC50 (Leishmania donovani [22]): 5.5
- Ratio IC50 (Leishmania donovani [23]): 3.2
- Ratio IC50 (Leishmania donovani [24]): 1.5
- Ratio IC50 (Leishmania donovani [25]): 1.9
- Ratio IC50 (Leishmania donovani [26]): 6.6
- Ratio IC50 (Leishmania donovani [27]): 6.6
- Ratio IC50 (Leishmania donovani [28]): 4.2
- Ratio IC50 (Leishmania guyanensis [29]): 3.2
- Ratio IC50 (Leishmania guyanensis [30]): 4
- Ratio IC50 (Leishmania guyanensis [31]): 6
- Ratio IC50 (Leishmania guyanensis [32]): 2.5
- Ratio IC50 [33]: 4.5
- Ratio IC50 [34]: 5.8
